Data set [1] concerns the target T1, Programmed cell death protein 1/Programmed cell death 1 ligand 1 (Homo sapiens, UniProt Q15116+Q9NZQ7). As to the kind of experiment: Inhibition of human PD-1/PD-L1 interaction assessed as disruption of PD-1/PD-L1 complex incubated for 2 hrs by Tag-1 Eu3+ and anti-Tag2-XL665 based HTRF assay. It is filed as protein-complex assay.
Data set [2] deals with Mus musculus. Put plainly: Toxicity in C57BL6 mouse allografted with mouse lewis lung carcinoma cells assessed as reduction body weight at 5 mg/kg, ig for 21 days. It is filed as organism-based. The following applies: in vivo, po, 504 h, time 21 day.
In data set [3] the test system is Mus musculus. As to the kind of experiment: Upregulation of IFNgamma protein expression in C57BL6 mouse serum allografted with mouse lewis lung carcinoma cells at 5 mg/kg, ig for 21 days by ELISA. It is filed as functional, organism-based. The following applies: time 21.0 day.
Data set [4] in a line: Anti-tumor activity against mouse lewis lung carcinoma cells allografted in C57BL6 mouse assessed as reduction in tumor growth at 5 mg/kg, ig for 21 days relative to control. It is filed as functional. The following applies: po, 504 h, time 21 day, read-out: TGI.
Data set [5] relates to Lewis lung carcinoma. As to the kind of experiment: Anti-tumor activity against mouse lewis lung carcinoma cells allografted in C57BL6 mouse assessed as reduction in tumor growth at 2 to 5 mg/kg, ig for 21 days. It is filed as functional, organism-based. The following applies: dose 2-5 mg/kg, time 21.0 day.
Data set [6] has as its system Mus musculus. As to the kind of experiment: Upregulation of IFNgamma protein expression in C57BL6 mouse serum allografted with mouse lewis lung carcinoma cells at 2.5 to 5 mg/kg, ig for 21 days by ELISA. The following applies: dose 2.5-5 mg/kg, time 21.0 day. It is filed as functional, organism-based. In general terms: ELISA stands for enzyme-linked immunosorbent assay.

For data set [7], the system named is Lewis lung carcinoma. As to the kind of experiment: Immunostimulatory activity in mouse lewis lung carcinoma cells allografted in C57BL6 mouse assessed as increase in infiltration of CD8+ cells at 2 to 5 mg/kg, ig for 21 days by Flow cytometric analysis. It is filed as functional, organism-based. The following applies: dose 2-5 mg/kg, time 21.0 day. For orientation: In flow cytometry, cells or beads pass a laser one at a time.

The target in data set [8] is T1, Programmed cell death protein 1/Programmed cell death 1 ligand 1. As to the kind of experiment: Potency index, ratio of BMS-202 IC50 to test compound IC50 for inhibition of human PD-1/PD-L1 interaction assessed as disruption of PD-1/PD-L1 complex incubated for 2 hrs by Tag-1 Eu3+ and anti-Tag2-XL665 based HTRF assay. It is filed as protein-complex assay. A general note: In TR-FRET formats the signal depends on donor and acceptor labels being close together.

Data set [9] addresses Programmed cell death 1 ligand 1 (Mus musculus) (UniProt Q9EP73). As to the kind of experiment: Binding affinity to PDL1 in mouse lewis lung carcinoma cells assessed as thermal stability at 3 nM at 43 to 70 degC after 12 hrs by CESTA analysis. The following applies: Lewis lung carcinoma cell line.
Data set [10] concerns Lewis lung carcinoma. Put plainly: Immunostimulatory activity in mouse lewis lung carcinoma cells allografted in C57BL6 mouse assessed as increase in infiltration of CD8+/CD45+/CD3+ cells at 2 to 5 mg/kg, ig for 21 days by Flow cytometric analysis. The following applies: dose 2-5 mg/kg, time 21.0 day. It is filed as functional, organism-based.
Data set [11] relates to Lewis lung carcinoma. As to the kind of experiment: Immunostimulatory activity in mouse lewis lung carcinoma cells allografted in C57BL6 mouse assessed as increase in infiltration of T cells at 2 to 5 mg/kg, ig for 21 days by Flow cytometric analysis. The following applies: dose 2-5 mg/kg, time 21.0 day. It is filed as functional, organism-based.
For data set [12], the target named is Programmed cell death 1 ligand 1 (Mus musculus) (UniProt Q9EP73). As to the kind of experiment: Binding affinity to PDL1 in mouse lewis lung carcinoma cells assessed as thermal stability at 0.1 to 100 nM at 58 degC after 12 hrs by CESTA analysis. It is filed as tissue-based. The following applies: Lewis lung carcinoma cell line, dose 0.1-100 nM.
Sequence of Programmed cell death 1 ligand 1 (Mus musculus) (Q9EP73 whole entry): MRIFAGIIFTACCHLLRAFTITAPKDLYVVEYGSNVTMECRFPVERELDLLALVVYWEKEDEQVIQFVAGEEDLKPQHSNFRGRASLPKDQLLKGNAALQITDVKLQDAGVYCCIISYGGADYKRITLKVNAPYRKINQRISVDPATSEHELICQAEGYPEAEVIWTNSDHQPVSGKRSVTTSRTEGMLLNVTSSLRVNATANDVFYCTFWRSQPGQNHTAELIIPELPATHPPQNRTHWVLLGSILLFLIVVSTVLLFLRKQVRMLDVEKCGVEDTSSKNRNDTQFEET
A short description of data set [13]: Cytotoxicity against mouse lewis lung carcinoma cells assessed as reduction in cell viability at 0.3 to 3000 nM and measured after 24 to 72 hrs by MTT assay. It is filed as cell-based. The following applies: 3 µM, dose lower 0.3 nM, time lower 24 hrs, dose upper 3000 nM, time upper 72 hrs.
The test system of data set [14] is Lewis lung carcinoma. Put plainly: Immunostimulatory activity in mouse lewis lung carcinoma cells allografted in C57BL6 mouse assessed as increase in infiltration of total immune cells at 2 to 5 mg/kg, ig for 21 days by Flow cytometric analysis. It is filed as functional, organism-based. The following applies: dose 2-5 mg/kg, time 21.0 day.
Data set [15] concerns Lewis lung carcinoma. As to the kind of experiment: Induction of apoptosis in mouse lewis lung carcinoma cells allografted in C57BL6 mouse assessed as Increase in TUNEL positive cells at 2 to 5 mg/kg, ig for 21 days by TUNEL assay. The following applies: dose 2-5 mg/kg, time 21.0 day. It is filed as functional, organism-based.
The subject of data set [16] is Lewis lung carcinoma. As to the kind of experiment: Immunostimulatory activity in mouse lewis lung carcinoma cells allografted in C57BL6 mouse assessed as increase in infiltration of IFNgamm+/CD4+ cells at 2 to 5 mg/kg, ig for 21 days by Flow cytometric analysis. It is filed as functional, organism-based. The following applies: dose 2-5 mg/kg, time 21.0 day.
Data set [17] in a line: Anti-tumor activity against mouse lewis lung carcinoma cells allografted in C57BL6 mouse assessed as reduction in tumor growth at 2 mg/kg, ig for 21 days relative to control. It is filed as functional. The following applies: po, 504 h, time 21 day, read-out: TGI.
The test system of data set [18] is T-cell. Put plainly: Upregulation of IFNgamma protein expression in CON-A stimulated C57BL6 mouse lymphnode T cell co-cultured with Lewis lung carcinoma cell line at 0.3 to 30 nM by ELISA. It is filed as functional, tissue-based. The following applies: dose 0.3-30 nM.
Data set [19] has as its system PBMC. As to the kind of experiment: Upregulation of IFNgamma protein expression in CD3/CD28/PD-L1 stimulated PBMC (unknown origin) at 0.3 to 30 nM by ELISA. It is filed as functional, tissue-based. The following applies: Homo sapiens, dose 0.3-30 nM.
Data set [20] concerns Lewis lung carcinoma. Put plainly: Anti-tumor activity against mouse lewis lung carcinoma cells allografted in C57BL6 mouse assessed as reduction PCNA protein expression level at 2 to 5 mg/kg, ig for 21 days by immunohistochemistry analysis. It is filed as functional, organism-based. The following applies: dose 2-5 mg/kg, time 21.0 day.
Data set [21] concerns Mus musculus. As to the kind of experiment: Toxicity in C57BL6 mouse allografted with mouse lewis lung carcinoma cells assessed as reduction body weight at 2 mg/kg, ig for 21 days. The following applies: in vivo, po, 504 h, time 21 day. It is filed as organism-based.
Data set [22] relates to PBMC. As to the kind of experiment: Induction of immuno-regulatory activity in CD3/CD28/PD-L1 stimulated PBMC (unknown origin) at 0.3 to 30 nM by Western blot analysis. The following applies: Homo sapiens, dose 0.3-30 nM. It is filed as functional, tissue-based.
Data set [23] deals with T-cell. Put plainly: Cytotoxicity against C57BL6 mouse lymphnode T cell cells assessed as reduction in cell viability at 3000 nM and measured after 24 to 72 hrs by MTT assay. The following applies: 3 µM, time 24-72 hrs. It is filed as cell-based.

The source made the active and inactive calls. The rule behind the calls is not given here.

T1 sequence (Q15116 whole entry): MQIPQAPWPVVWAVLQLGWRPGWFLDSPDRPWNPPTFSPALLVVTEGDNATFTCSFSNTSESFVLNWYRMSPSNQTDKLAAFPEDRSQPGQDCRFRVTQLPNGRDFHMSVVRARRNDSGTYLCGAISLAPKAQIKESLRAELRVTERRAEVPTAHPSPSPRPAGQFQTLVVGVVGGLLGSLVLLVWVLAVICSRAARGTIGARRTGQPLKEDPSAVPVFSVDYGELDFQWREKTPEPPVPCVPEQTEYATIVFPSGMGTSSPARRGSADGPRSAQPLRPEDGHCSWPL
T1 sequence (Q9NZQ7 whole entry): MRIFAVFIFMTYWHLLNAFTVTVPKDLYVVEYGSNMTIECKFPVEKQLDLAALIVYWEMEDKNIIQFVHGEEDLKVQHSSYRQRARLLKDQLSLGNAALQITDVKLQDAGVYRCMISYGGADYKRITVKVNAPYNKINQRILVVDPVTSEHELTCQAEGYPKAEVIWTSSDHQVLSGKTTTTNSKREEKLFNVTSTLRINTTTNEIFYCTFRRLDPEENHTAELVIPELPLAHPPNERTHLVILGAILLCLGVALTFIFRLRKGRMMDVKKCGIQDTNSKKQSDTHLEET

For orientation: IC50 means the point on the concentration scale where inhibition reaches its midpoint. For the compound `Cc1c(COc2ccc(CN[C@@H](CO)C(=O)O)c(OCc3cccc(C#N)c3)c2)cccc1-c1ccccc1`, the concentration for half-maximal inhibition (IC50) in data set [1] was determined as 30.2 nM. The Activity result in the data set with Mus musculus [2] is “Non-Toxic”. Moreover, the outcome in the data set on Mus musculus [3] was Active. The inhibition in vivo at 5 mg/kg in data set [4] was 17.8%.
Turning to `Cc1c(COc2cc(OCc3cccc(C#N)c3)c(CN[C@H](C(=O)O)[C@@H](C)O)cc2[N+](=O)[O-])cccc1-c1ccccc1`, the 50% inhibitory concentration (IC50) in data set [1] is 2.7 nM. For the same compound, the TGI entry in the data set on Lewis lung carcinoma [5] was “Dose-Dependent Effect”. Besides, the Activity entry with Mus musculus [6] was “Dose-Dependent Effect”; in data set [12] it was “Dose-Dependent Effect”; in data set [13] it was “Non-Toxic”; in the data set with Mus musculus [2] it was “Non-Toxic”; in the data set on Lewis lung carcinoma [15] it was “Dose-Dependent Effect”; in the data set with T-cell [18], “Dose-Dependent Effect”. In addition, the Activity result with PBMC [19] is “Dose-Dependent Effect”; in the data set on Lewis lung carcinoma [20], “Dose-Dependent Effect”; in the data set on Mus musculus [21] it was “Non-Toxic”; in the data set on PBMC [22], “Dose-Dependent Effect”; in the data set on T-cell [23], “Non-Toxic”. Also, the result (in the data set with Lewis lung carcinoma [7]; in [9]; with Lewis lung carcinoma [10]; with Lewis lung carcinoma [11]; in the data set with Lewis lung carcinoma [14]; in the data set on Lewis lung carcinoma [16]) was Active. The Ratio IC50 in [8] is 25. Besides, the inhibition in vivo at 2 mg/kg in data set [17] stood at 17.3%. In addition, the inhibition in vivo at 5 mg/kg in data set [4] came out at 48.5%.

Source of the values: ChEMBL document CHEMBL5033993, “Design, Synthesis, and Evaluation of o-(Biphenyl-3-ylmethoxy)nitrophenyl Derivatives as PD-1/PD-L1 Inhibitors with Potent Anticancer Efficacy In Vivo” (J Med Chem, 2021).
